In ChEMBL document CHEMBL1131600 (J Med Chem, 1998):

How the values were obtained:
Type in all cases: functional, organism-based
Plasmodium falciparum [1] = assay: In vitro antimalarial activity against chloroquine-sensitive Plasmodium falciparum NF54
Plasmodium falciparum [2] = assay: In vitro antimalarial activity against chloroquine-sensitive Plasmodium falciparum NF54 in C4alpha-alkylated trioxanes
Plasmodium falciparum [3] = assay: In vitro antimalarial activity against chloroquine-sensitive Plasmodium falciparum NF54 in C4beta-stannylmethyl trioxanes

Row | Compound | IC50 (Plasmodium falciparum [1]; Plasmodium falciparum) [nM] | IC50 (Plasmodium falciparum [2]) [nM] | IC50 (Plasmodium falciparum [3]; Plasmodium falciparum) [nM] | other results
1 | CO[C@H]1O[C@@]2(C)OOC13[C@H](CCOP(=O)(Oc1ccccc1)Oc1ccccc1)CCC[C@@H]3C[C@@H]2C | 6.9 |  |  | 
2 | CO[C@H]1O[C@]2(C)CC[C@H]3CCC[C@@H](CCO)C31OO2 | 120 |  |  | 
3 | CO[C@H]1O[C@@]2(C)OOC13[C@H](CCO)CCC[C@@H]3CC2Cc1ccccc1 (some centres undefined) |  | 1700 | 8.3 | 
4 | CO[C@H]1O[C@@]2(C)OOC13CCCC[C@@H]3CC2CO (some centres undefined) |  | > 2500 | 230 | 
5 | CO[C@H]1O[C@]2(C)CC[C@H]3CCC[C@@H](CCOCc4ccccc4)C31OO2 | 25 |  |  | 
6 | CO[C@H]1O[C@@]2(C)OOC13CCCC[C@@H]3CC2Cc1ccc(COCc2ccc(F)cc2)cc1 (some centres undefined) | 240 |  |  | 
7 | CO[C@H]1O[C@@]2(C)OOC13CCCC[C@@H]3C[C@@H]2CO | 230 |  |  | 
8 | CO[C@H]1O[C@@]2(C)OOC13CCCC[C@@H]3CC2Cc1ccc(CO)cc1 (some centres undefined) |  | > 2500 | 600 | 
9 | CO[C@H]1O[C@@]2(C)OOC13CCCC[C@@H]3C[C@@H]2Cc1ccc(CO)cc1 | 600 |  |  | 
10 | CO[C@H]1O[C@@]2(C)OOC13[C@H](CCO)CCC[C@@H]3CC2C (some centres undefined) |  | 1300 | 7.7 | 
11 | CO[C@H]1O[C@@]2(C)OOC13CCCC[C@@H]3CC2c1ccccc1 (some centres undefined) |  | > 2500 | 2000 | 
12 | CO[C@H]1O[C@@]2(C)OOC13[C@H](CCOCc1ccccc1)CCC[C@@H]3C[C@@H]2C | 11 |  |  | 
13 | CO[C@H]1O[C@]2(C)CC[C@H]3CCC[C@@H](CCOCc4ccc(F)cc4)C31OO2 | 31 |  |  | 
14 | CO[C@H]1O[C@@]2(C)OOC13[C@H](CCOCc1ccc(F)cc1)CCC[C@@H]3C[C@@H]2C | 13 |  |  | 
15 | CO[C@H]1O[C@@]2(C)OOC13CCCC[C@@H]3C[C@@H]2COCc1ccc(F)cc1 | 19 |  |  | 
16 | CO[C@H]1O[C@@]2(C)OOC13CCCC[C@@H]3CC2Cc1ccccc1 (some centres undefined) |  | > 2500 | 310 | 
17 | CO[C@H]1O[C@@]2(C)OOC13[C@H](CCO)CCC[C@@H]3CC2C[Si](C)(C)C (some centres undefined) |  | > 2500 | 240 | 
18 | CO[C@H]1O[C@@]2(C)OOC13[C@H](CCO)CCC[C@@H]3C[C@@H]2C | 7.7 |  |  | 
19 | 2-((2S,6R,9S,12S)-12-Methoxy-9-methyl-8-trimethylstannanylmethyl-10,11,13-trioxa-tricyclo[7.2.2.0 1,6 ]tridec-2-yl)-ethanol |  |  |  | IC50 (Plasmodium falciparum [3]): > 2500 nM
20 | ((6R,9S,12S)-12-Methoxy-9-methyl-10,11,13-trioxa-tricyclo[7.2.2.01,6]tridec-8-ylmethyl)-trimethyl-stannane |  |  |  | IC50 (Plasmodium falciparum [1]): > 2500 nM
21 | ((6R,9S,12S)-12-Methoxy-9-methyl-10,11,13-trioxa-tricyclo[7.2.2.01,6]tridec-8-ylmethyl)-triphenyl-stannane |  |  |  | IC50 (Plasmodium falciparum [1]): > 2500 nM
22 | Tributyl-((6R,9S,12S)-12-methoxy-9-methyl-10,11,13-trioxa-tricyclo[7.2.2.01,6]tridec-8-ylmethyl)-stannane |  |  |  | IC50 (Plasmodium falciparum [1]): > 2500 nM
